Six compounds from PubChem BioAssay (NCI) can be followed below.

Where “and” joins values, the source holds several entries; their conditions need not be identical. Equal values may be shown once.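 All cell lines were grown in 96-well plates and treated with compound for 48 hours. GI50 marks 50% less growth. TGI is the concentration that stops growth completely.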 A value given as a limit tells only on which side of the number the result lay.

What all share (assay): NCI anticancer screen, dose series, 48 h
Experiment [1] has as its system OVCAR-3 ovarian.
The test system of experiment [2] is MDA-MB-231 breast.
Experiment [3] deals with SK-MEL-28 melanoma.
Experiment [4] relates to SNB-19 CNS.
The test system of experiment [5] is OVCAR-5 ovarian.
Experiment [6] has as its system U251 CNS.
Experiment [7] deals with MALME-3M melanoma.
Experiment [8] relates to NCI-H226 lung.
For experiment [9], the system named is NCI-H522 lung.
For experiment [10], the system named is OVCAR-8 ovarian.

Take `COc1ccc(/C=C/C(C)=N/OCC(=O)Nc2ccc(Cl)cc2)cc1`: the GI50 in experiment [1] is 3.03 µM; in experiment [2], 1.76 µM; in [3], 3.17 µM; in experiment [4], 3.16 µM; in experiment [5], 5.45 µM; in [6], 2.94 µM. Also, the GI50 was 4.22 µM in experiment [7], 3.38 µM in experiment [8], 1.81 µM in experiment [9] and 3.52 µM in experiment [10]. The TGI in experiment [1] is 15 µM; in [2], 8.99 µM; in experiment [3], 31.6 µM; in [4] it was above 60.1 µM; in [5], above 77.3 µM; in experiment [6], 13.7 µM. Further, the TGI worked out at 23.3 µM in experiment [7], 26.7 µM in [8], 8.01 µM in [9] and 29.5 µM in experiment [10].

For the compound `O=c1nc2[nH]c3c(-c4n[nH]c(=O)[nH]c4=O)cccc3c2n[nH]1`, the GI50 in experiment [1], in experiment [2], in experiment [3], in experiment [4], in experiment [5] and in experiment [6] was above 100 µM in each case. Also, the GI50 in [7], in [8], in experiment [9] and in [10] was above 100 µM throughout. For the same compound, the TGI in experiment [1], in experiment [2], in experiment [3], in [4], in experiment [5] and in experiment [6] was above 100 µM in each case. Besides, the TGI in experiment [7], in experiment [8], in experiment [9] and in experiment [10] was above 100 µM each time.

On to `CN(C)c1ccc(N=C2C=CC(=C(C#N)C#N)c3ccccc32)cc1`, for which the TGI was found to be 1.46 µM in [1]; 2.66 µM in experiment [2]; 20.5 µM in experiment [3]; 12.7 µM in experiment [4]; 10.6 µM in experiment [5]; 6.53 µM in [6]. Also, the TGI was 17.1 µM in [7], 0.741 µM in [8], 0.305 µM in experiment [9] and 1.75 µM in experiment [10].

Turning to `CNCc1cccc2c1OCCOCCOCCC(C)S(=O)(=O)c1ccc(cc1)-c1cnc(N)c(n1)C(=O)N2` (centres undefined), the GI50 in experiment [1] was 1.16 µM; in experiment [2], 2.34 µM; in experiment [3], 1.77 µM; in [4], 2.5 µM; in [5] it was 3.82 µM; in [6] it was 1.15 µM. Moreover, the GI50 in [7] was 1.59 µM; in experiment [8] it was 1.98 µM; in experiment [9], 1.23 µM; in experiment [10], 1.78 µM. The TGI in experiment [1] was determined as 2.59 µM; in experiment [2], 5.5 µM; in [3], 3.37 µM; in [4], 5.52 µM; in [5] it was 11.4 µM; in experiment [6], 3.62 µM. The TGI in experiment [7] is 3.13 µM; in [8], 5.46 µM; in [9] it was 3.25 µM; in [10] it was 7.9 µM.

In the case of `CCN1CCN(c2nc(NNC(=O)c3ccccc3)nc(N3CCN(C(c4ccccc4)c4ccccc4)CC3)n2)CC1`, the GI50 is 3.43 µM in experiment [1]; 2.7 µM in experiment [2]; 1.8 µM in experiment [3]; 4.28 µM in experiment [4]; 6.03 µM in [5]; 3.05 µM in [6]. Further, the GI50 is 1.7 µM in [7], 11.9 µM in [8], 2.69 µM in experiment [9] and 3.58 µM in experiment [10]. The TGI was found to be 13.2 µM in [1]; 7.55 µM in experiment [2]; 3.49 µM in experiment [3]; 17.8 µM in experiment [4]; 21.4 µM in experiment [5]; 10.5 µM in [6]. Besides, the TGI is 3.48 µM in experiment [7], 29.5 µM in experiment [8], 7.65 µM in [9] and 19.5 µM in experiment [10].

With `CC1OC(OC2C(O[C@H]3CC[C@@]4(C)C(=CC[C@H]5[C@@H]6C[C@@H]7O[C@]8(CC[C@@H](C)CO8)[C@@H](C)[C@@H]7[C@@]6(C)CC[C@@H]54)C3)OC(CO)C(OC3OC(CO)C(O)C3O)C2O)C(O)C(O)C1O` (some centres undefined), the GI50 in [1] was 1.49 µM; in [2], 0.497 µM; in [3], 0.21 µM; in experiment [4] it was 0.649 µM; in experiment [5] it was 1.32 µM; in experiment [6], 0.325 µM. Besides, the GI50 is 0.324 µM in experiment [7], 1.23 µM in experiment [9] and 0.423 µM in experiment [10]. Moreover, the TGI in [1] was 1.79 µM and 2.82 µM; in experiment [2], 1.6 µM and 1.65 µM; in [3], 1.37 µM and 0.522 µM; in experiment [4] it was 1.48 µM and 1.82 µM; in [5] it was 1.53 µM and 2.59 µM; in [6], 1.44 µM. For the same compound, the TGI is 1.61 µM and 0.891 µM in experiment [7]; 1.73 µM in experiment [8]; 1.77 µM and 2.47 µM in [9]; 1.16 µM and 1.5 µM in experiment [10].
